Reference: US9802937B2, “Substituted pyrazolo{4,3-D}pyrimidines as kinase inhibitors” (ORIGENIS GMBH, priority 2011, dated 2017)

Target: T1, SYK kinase (Homo sapiens, UniProt P43405)
T1 construct: purchased Invitrogen, Carlsbad
Assay: SYK Assay (OMNIA KINASE ASSAY, SOX peptide fluorescence)
Type: biochemical
Conditions: apparent Ki calculated from the IC50 using the Cheng-Prusoff equation; 1 mM ATP, 30° C.; read-out: SYK Activities: Ki
Procedure: In the assay OMNIA® KINASE ASSAY by Invitrogen Corporation (Carlsbad) the effect of invention of a compound on the phosphorylation is determined by measurement of fluorescence intensity of a chelation-enhanced fluorophore called SOX. Upon phosphorylation of the peptide by the kinase of interest, Mg2+ is chelated to form a bridge between the SOX moiety and the phosphate group that is transferred to the specific tyrosine on the peptide. The fluorescence intensity is directly proportional to the amount of peptide phosphorylation.
To the wells of an 384 well small volume plate (Greiner, Frickenhausen) are added (i) the compound under test in 5% DMSO/distilled water (2 μl), (ii) 16 μl of the master mix containing ATP, DTT, Kinase Reaction Buffer, Omina Peptide Substrate Tyr 7 resulting in a final concentration of 1 mM ATP, 0.2 mM DTT and 10 μM Peptide Substrate.
The Master Mix and the assay plate was incubated to reaction temperature before the measurement (30° C.). The reaction was started with addition of (iii) 2 μl 4 μg/ml SYK kinase (Invitrogen, Carlsbad). During measurement fluorescence intensitiy readings were collected using a TECAN M1000 at a wavelength of λex 360/λem 485 nm every 30 s for 30 minutes. The reaction velocity was plotted versus the inhibitor concentration to determine the […] using XLFit 5.0 (IDBS, Guildford) to fit to a sigmoidal dose response curve, and the apparent Ki values were calculated from the IC50 using the Cheng-Prusoff equation (Cheng, Y.; Prusoff, W. H. Biochem. Pharmacol. 22, 3099-3108, 1973).

Compound | Ki
N[C@@H]1CCCC[C@@H]1Nc1nc(-c2ccsc2)nc2cn[nH]c12 [Example #116, (1S,2R)—N-(5-Thiophen-3-yl-1H-pyrazolo[4,3-d]pyrimidin-7-yl)-cyclohexane-1,2-diamine] | 10 to 100 nM
COc1ccc(OC)c(-c2nc(Nc3ccc(OC)c(OC)c3)c3[nH]ncc3n2)c1 [Example #121, 5-(2,5-dimethoxyphenyl)-N-(3,4-dimethoxyphenyl)-1H-pyrazolo[4,3-d]pyrimidin-7-amine] | 100 to 1000 nM
CC(=O)N1CCN(c2ccc(Nc3nc(-c4cnc5cc[nH]c5c4)nc4cn[nH]c34)cc2)CC1 [Example #256, 1-(4-(4-((5-(1H-pyrrolo[3,2-b]pyridin-6-yl)-1H-pyrazolo[4,3-d]pyrimidin-7-yl)amino)phenyl)piperazin-1-yl)ethan-1-one] | < 10 nM
Cc1ccc(CNCc2cccc(-c3nc(Nc4ccc(N5CCN(C)CC5)cc4)c4[nH]ncc4n3)c2)cc1 [Example #180, 5-(3-(((4-methylbenzyl)amino)methyl)phenyl)-N-(4-(4-methylpiperazin-1-yl)phenyl)-1H-pyrazolo[4,3-d]pyrimidin-7-amine] | 10 to 100 nM
FS(F)(F)(F)(F)c1cccc(-c2nc(Nc3ccc(N4CCOCC4)cc3)c3[nH]ncc3n2)c1 [Example #220, 5-(3-(pentafluorosulfanyl)phenyl)-N-(4-morpholinophenyl)-1H-pyrazolo[4,3-d]pyrimidin-7-amine] | 10 to 100 nM
CN1CCN(c2ccc(Nc3nc(-c4cccc(N5CCOCC5)c4)nc4cn[nH]c34)cc2)CC1 [Example #106, N-(4-(4-methylpiperazin-1-yl)phenyl)-5-(3-morpholinophenyl)-1H-pyrazolo[4,3-d]pyrimidin-7-amine] | 10 to 100 nM
FC(F)(F)Oc1cccc(-c2nc(Nc3ccc(N4CCOCC4)cc3)c3[nH]ncc3n2)c1 [Example #227, N-(4-morpholinophenyl)-5-(3-(trifluoromethoxy)phenyl)-1H-pyrazolo[4,3-d]pyrimidin-7-amine] | 10 to 100 nM
c1cncc(-c2cccc(-c3nc(Nc4ccc(N5CCOCC5)cc4)c4[nH]ncc4n3)c2)c1 [Example #102, N-(4-morpholinophenyl)-5-(3-(pyridin-3-yl)phenyl)-1H-pyrazolo[4,3-d]pyrimidin-7-amine] | 10 to 100 nM
c1cncc(-c2cccc(-c3nc(Nc4ccc5c(c4)NCCO5)c4[nH]ncc4n3)c2)c1 [Example #103, N-(5-(3-(pyridin-3-yl)phenyl)-1H-pyrazolo[4,3-d]pyrimidin-7-yl)-3,4-dihydro-2H-benzo[b][1,4]oxazin-6-amine] | 10 to 100 nM
O=C1CCc2ccc(Nc3nc(-c4ccc5c(c4)NC(=O)CO5)nc4cn[nH]c34)cc2N1 [Example #287, 6-(7-((2-oxo-1,2,3,4-tetrahydroquinolin-7-yl)amino)-1H-pyrazolo[4,3-d]pyrimidin-5-yl)-2H-benzo[b][1,4]oxazin-3(4H)-one] | 10 to 100 nM
COc1ccc(Nc2nc(-c3cn4ccccc4n3)nc3cn[nH]c23)cc1OC [Example #124, N-(3,4-dimethoxyphenyl)-5-(imidazo[1,2-a]pyridin-2-yl)-1H-pyrazolo[4,3-d]pyrimidin-7-amine] | 10 to 100 nM
CC(=O)N1CCN(c2ccc(Nc3nc(-c4cccc(-c5nn[nH]n5)c4)nc4cn[nH]c34)cc2)CC1 [Example #192, 1-(4-(4-((5-(3-(2H-tetrazol-5-yl)phenyl)-1H-pyrazolo[4,3-d]pyrimidin-7-yl)amino)phenyl)piperazin-1-yl)ethan-1-one] | < 10 nM
c1cncc(-c2cccc(-c3nc(Nc4cc(C5CC5)[nH]n4)c4[nH]ncc4n3)c2)c1 [Example #100, N-(5-cyclopropyl-1H-pyrazol-3-yl)-5-(3-(pyridin-3-yl)phenyl)-1H-pyrazolo[4,3-d]pyrimidin-7-amine] | 10 to 100 nM
c1cncc(-c2cccc(-c3nc(Nc4ccc5cn[nH]c5c4)c4[nH]ncc4n3)c2)c1 [Example #104, N-(1H-indazol-6-yl)-5-(3-(pyridin-3-yl)phenyl)-1H-pyrazolo[4,3-d]pyrimidin-7-amine] | 10 to 100 nM
COc1ccc(Nc2nc(-c3cc(F)cc(F)c3)nc3cn[nH]c23)cc1OC [Example #274, 5-(3,5-difluorophenyl)-N-(3,4-dimethoxyphenyl)-1H-pyrazolo[4,3-d]pyrimidin-7-amine] | 100 to 1000 nM

More lines, now with the values ahead:

Ki | Compound
100 to 1000 nM | COc1ccc(Nc2nc(-c3ccc(F)c(F)c3)nc3cn[nH]c23)cc1OC [Example #272, 5-(3,4-difluorophenyl)-N-(3,4-dimethoxyphenyl)-1H-pyrazolo[4,3-d]pyrimidin-7-amine]
< 10 nM | c1ccc2sc(-c3nc(Nc4ccc5cn[nH]c5c4)c4[nH]ncc4n3)nc2c1 [Example #98, 5-(benzo[d]thiazol-2-yl)-N-(1H-indazol-6-yl)-1H-pyrazolo[4,3-d]pyrimidin-7-amine]
10 to 100 nM | CN(C)CCCOc1cccc(-c2nc(Nc3ccc(N4CCN(C)CC4)cc3)c3[nH]ncc3n2)c1 [Example #181, 5-(3-(3-(dimethylamino)propoxy)phenyl)-N-(4-(4-methylpiperazin-1-yl)phenyl)-1H-pyrazolo[4,3-d]pyrimidin-7-amine]
10 to 100 nM | Clc1cccc(-c2nc(Nc3ccc(N4CCOCC4)cc3)c3[nH]ncc3n2)c1 [Example #231, 5-(3-chlorophenyl)-N-(4-morpholinophenyl)-1H-pyrazolo[4,3-d]pyrimidin-7-amine]
100 to 1000 nM | FS(F)(F)(F)(F)c1ccc(Nc2nc(-c3ccsc3)nc3cn[nH]c23)cc1 [Example #178, N-(4-(pentafluorosulfanyl)phenyl)-5-(thiophen-3-yl)-1H-pyrazolo[4,3-d]pyrimidin-7-amine]
100 to 1000 nM | CC1(C)CNc2cc(Nc3nc(-c4ccsc4)nc4cn[nH]c34)ccc2S1 [Example #148, 2,2-dimethyl-N-(5-(thiophen-3-yl)-1H-pyrazolo[4,3-d]pyrimidin-7-yl)-3,4-dihydro-2H-benzo[b][1,4]thiazin-6-amine]
10 to 100 nM | COc1ccc(Nc2nc(-c3cccc(OC(F)(F)F)c3)nc3cn[nH]c23)cc1OC [Example #226, N-(3,4-dimethoxyphenyl)-5-(3-(trifluoromethoxy)phenyl)-1H-pyrazolo[4,3-d]pyrimidin-7-amine]
10 to 100 nM | COc1ccc(Nc2nc(-c3ccc(F)cc3)nc3cn[nH]c23)cc1OC [Example #270, N-(3,4-dimethoxyphenyl)-5-(4-fluorophenyl)-1H-pyrazolo[4,3-d]pyrimidin-7-amine]
10 to 100 nM | CS(=O)(=O)c1cccc(Nc2nc(-c3cccc(S(C)(=O)=O)c3)nc3cn[nH]c23)c1 [Example #253, N,5-bis(3-(methylsulfonyl)phenyl)-1H-pyrazolo[4,3-d]pyrimidin-7-amine]
10 to 100 nM | CC(C)(C#N)c1ccc(Nc2nc(-c3cccs3)nc3cn[nH]c23)cc1 [Example #167, 2-methyl-2-(4-((5-(thiophen-2-yl)-1H-pyrazolo[4,3-d]pyrimidin-7-yl)amino)phenyl)propanenitrile]
< 10 nM | CC(=O)N1CCN(c2ccc(Nc3nc(-c4cccc(S(C)(=O)=O)c4)nc4cn[nH]c34)cc2)CC1 [Example #246, 1-(4-(4-((5-(3-(methylsulfonyl)phenyl)-1H-pyrazolo[4,3-d]pyrimidin-7-yl)amino)phenyl)piperazin-1-yl)ethan-1-one]
10 to 100 nM | c1ccc(-c2nc(Nc3ccc(N4CCCCC4)cc3)c3[nH]ncc3n2)cc1 [Example #3, 5-phenyl-N-(4-(piperidin-1-yl)phenyl)-1H-pyrazolo[4,3-d]pyrimidin-7-amine]
< 10 nM | O=C(O)c1ccc(Nc2nc(-c3cn4ccccc4n3)nc3cn[nH]c23)cc1 [Example #128, 4-((5-(imidazo[1,2-a]pyridin-2-yl)-1H-pyrazolo[4,3-d]pyrimidin-7-yl)amino)benzoic-acid]
100 to 1000 nM | COc1ccc(Nc2nc(-c3nc4ccccc4n3C)nc3cn[nH]c23)cc1OC [Example #130, N-(3,4-dimethoxyphenyl)-5-(1-methyl-1H-benzo[d]imidazol-2-yl)-1H-pyrazolo[4,3-d]pyrimidin-7-amine]
10 to 100 nM | CN1CCN(c2ccc(Nc3nc(-c4ccccc4O)nc4cn[nH]c34)cc2)CC1 [Example #105, 2-(7-((4-(4-methylpiperazin-1-yl)phenyl)amino)-1H-pyrazolo[4,3-d]pyrimidin-5-yl)phenol]
100 to 1000 nM | CN1CCN(c2ccc(Nc3nc(-c4cccc(OCC(=O)O)c4)nc4cn[nH]c34)cc2)CC1 [Example #174, 2-(3-(7-((4-(4-methylpiperazin-1-yl)phenyl)amino)-1H-pyrazolo[4,3-d]pyrimidin-5-yl)phenoxy)acetic acid]
100 to 1000 nM | c1ccc(-c2nc(Nc3ccc(N4CCCC4)cc3)c3[nH]ncc3n2)cc1 [Example #39, 5-phenyl-N-(4-(pyrrolidin-1-yl)phenyl)-1H-pyrazolo[4,3-d]pyrimidin-7-amine]
100 to 1000 nM | Cc1cccc(NC(=O)Nc2ccc(Nc3nc(-c4ccsc4)nc4cn[nH]c34)cc2)c1 [Example #133, 1-(4-((5-(thiophen-3-yl)-1H-pyrazolo[4,3-d]pyrimidin-7-yl)amino)phenyl)-3-(m-tolyl)urea]
10 to 100 nM | CN(C)S(=O)(=O)c1ccc(Nc2nc(-c3cccs3)nc3cn[nH]c23)cc1 [Example #260, N,N-dimethyl-4-((5-(thiophen-2-yl)-1H-pyrazolo[4,3-d]pyrimidin-7-yl)amino)benzenesulfonamide]
